Legend:
[1] = Cytotoxicity against human HepG2 cells assessed as reduction in cell viability at 300 uM after 72 hrs by MTT assay; type: functional; details: HepG2, 72 h
[2] = Cytotoxicity against human HepG2 cells assessed as reduction in cell viability after 72 hrs by MTT assay; type: functional, cell-based; details: HepG2, 72 h
[3] = Cytotoxicity against hamster AG17-1 cells assessed as reduction in cell viability at 300 uM after 72 hrs by MTT assay; type: toxicity, cell-based, Cricetulus griseus; details: Chinese hamster, read-out: INH
[4] = Cytotoxicity against hamster AG17-1 cells assessed as reduction in cell viability after 72 hrs by MTT assay; type: toxicity, cell-based, Cricetulus griseus; details: Chinese hamster
[5] = Ratio of IC50 for human U937 cells to concentration causing antioxidant activity in Salmonella typhimurium TA102 harboring […] mutant; type: functional, U-937
[6] = Cytotoxicity against human U937 cells assessed as reduction in cell viability after 72 hrs by MTT assay; type: functional, cell-based; details: U-937, 72 h
[7] = Cytotoxicity against human MCF7 cells assessed as reduction in cell viability after 72 hrs by MTT assay; type: functional, cell-based; details: MCF7, 72 h
[8] = Ratio of IC50 for human RPMI8226 cells to concentration causing antioxidant activity in Salmonella typhimurium TA102 harboring […] mutant; type: functional, RPMI-8226
[9] = Ratio of IC50 for human MCF7 cells to concentration causing antioxidant activity in Salmonella typhimurium TA102 harboring […] mutant; type: functional
[10] = system: Salmonella enterica subsp. enterica serovar Typhimurium; experiment: Antioxidant activity in Salmonella typhimurium TA102 harboring […] mutant assessed as inhibition of t-BuO2H-dependant mutant formation at 3 uM preincubated with compound followed by t-BuO2H addition after 48 hrs by Ames test; type: functional
[11] = system: Salmonella typhimurium; experiment: Genotoxicity in Salmonella typhimurium TA102 harboring […] mutant assessed as frequency of reversion from histidine auxotrophy to prototrophy at 30 mM after 48 hrs by Ames test (reference value: 209 +/- 10 No _unit); type: toxicity, organism-based; details: salmonella enterica subsp. enterica serovar typhimurium, 30000 µM
[12] = Cytotoxicity against human CEM13 cells assessed as reduction in cell viability after 72 hrs by MTT assay; type: functional, cell-based; details: CEM13, 72 h
[13] = Ratio of IC50 for human MT4 cells to concentration causing antioxidant activity in Salmonella typhimurium TA102 harboring […] mutant; type: functional
[14] = Ratio of IC50 for human CEM13 cells to concentration causing antioxidant activity in Salmonella typhimurium TA102 harboring […] mutant; type: functional
[15] = Cytotoxicity against mouse LMTK cells assessed as reduction in cell viability at 300 uM after 72 hrs by MTT assay; type: toxicity; details: read-out: INH
[16] = Ratio of IC50 for human HEPG2 cells to concentration causing antioxidant activity in Salmonella typhimurium TA102 harboring […] mutant; type: functional
[17] = Cytotoxicity against human MT4 cells assessed as reduction in cell viability at 300 uM after 72 hrs by MTT assay; type: functional; details: MT4, 72 h
[18] = system: Salmonella enterica subsp. enterica serovar Typhimurium; experiment: Antioxidant activity in Salmonella typhimurium TA102 harboring […] mutant assessed as inhibition of t-BuO2H-dependant mutant formation at 0.3 uM preincubated with compound followed by t-BuO2H addition after 48 hrs by Ames test; type: functional
[19] = Cytotoxicity against human MCF7 cells assessed as reduction in cell viability at 300 uM after 72 hrs by MTT assay; type: functional; details: MCF7, 72 h
[20] = system: Salmonella enterica subsp. enterica serovar Typhimurium; experiment: Antioxidant activity in Salmonella typhimurium TA102 harboring […] mutant assessed as inhibition of t-BuO2H-dependant mutant formation at 30 uM preincubated with compound followed by t-BuO2H addition after 48 hrs by Ames test; type: functional
[21] = Cytotoxicity against human MT4 cells assessed as reduction in cell viability after 72 hrs by MTT assay; type: functional, cell-based; details: MT4, 72 h
[22] = Cytotoxicity against human RPMI8226 cells assessed as reduction in cell viability at 300 uM after 72 hrs by MTT assay; type: functional; details: RPMI-8226, 72 h
[23] = Cytotoxicity against mouse LMTK cells assessed as reduction in cell viability after 72 hrs by MTT assay; type: toxicity
[24] = Genotoxicity in Escherichia coli PQ37 expressing lacZ gene assessed as ratio of inducible beta-galactosidase activity to alkaline phosphatase activity at 30 mM after 2 hrs by SOS-chromotest relative to control; type: toxicity; details: Escherichia coli PQ37 cells expressing lacZ gene, read-out: FC
[25] = Cytotoxicity against human RPMI8226 cells assessed as reduction in cell viability after 72 hrs by MTT assay; type: functional, cell-based; details: RPMI-8226, 72 h
[26] = Cytotoxicity against human CEM13 cells assessed as reduction in cell viability at 300 uM after 72 hrs by MTT assay; type: functional; details: CEM13, 72 h
[27] = system: Salmonella typhimurium; experiment: Genotoxicity in Salmonella typhimurium TA102 harboring […] mutant assessed as frequency of reversion from histidine auxotrophy to prototrophy at 0.35 mM after 48 hrs by Ames test (reference value: 209 +/- 10 No _unit); type: toxicity, organism-based; details: salmonella enterica subsp. enterica serovar typhimurium, 350 µM
[28] = Genotoxicity in Escherichia coli PQ37 expressing lacZ gene assessed as ratio of inducible beta-galactosidase activity to alkaline phosphatase activity at 1 mM after 2 hrs by SOS-chromotest relative to control; type: toxicity; details: Escherichia coli PQ37 cells expressing lacZ gene, read-out: FC
[29] = Genotoxicity in Escherichia coli PQ37 expressing lacZ gene assessed as ratio of inducible beta-galactosidase activity to alkaline phosphatase activity at 3 mM after 2 hrs by SOS-chromotest relative to control; type: toxicity; details: Escherichia coli PQ37 cells expressing lacZ gene, read-out: FC

Row | SMILES | inhibition at 300 µM [1] [%] | IC50 [2] [µM] | cytotoxicity at 72 h, 300 µM [3] [%] | IC50 at 72 h [4] [µM] | Ratio [5] | IC50 [6] [µM] | IC50 [7] [µM] | inhibition [10] [%] | Activity [11] | IC50 [12] [µM] | cytotoxicity at 72 h, 300 µM [15] [%] | inhibition at 300 µM [17] [%] | inhibition [18] [%] | inhibition at 300 µM [19] [%] | inhibition [20] [%] | IC50 [21] [µM] | inhibition at 300 µM [22] [%] | IC50 at 72 h [23] [µM] | fold induction at 2 h, 30000 µM [24] | IC50 [25] [µM] | further results
1 | Cc1c(C)c2c(c(C)c1OC(=O)CCC(=O)O)CCC(C)(C(=O)NC1CC(C)(C)N([O])C1(C)C)O2 (centres undefined) | 25 | > 300 | 27 | > 300 | 100 - 1000 | 163 | > 300 | 11 | 221 | 205 | 0 | 45 | 6 | 25 | 33 | > 300 | 28 | > 300 | 1.2 | > 300 | Ratio [8]: 100 - 1000; Ratio [9]: 100 - 1000; Ratio [13]: 100 - 1000; Ratio [14]: 100 - 1000; Ratio [16]: 100 - 1000
2 | Cc1c(C)c2c(c(C)c1OC(=O)CCC(=O)O)CCC(C)(C(=O)NCC1CC(C)(C)N([O])C1(C)C)O2 (centres undefined) | 18 | > 300 | 30 | > 300 | 100 - 1000 | 24 | > 300 | 22 | 205 | > 300 | 0 | 46 | 31 | 24 | 18 | > 300 | 22 | > 300 | 1.3 | > 300 | inhibition at 300 µM [26]: 31%; Ratio [8]: 100 - 1000; Ratio [9]: 100 - 1000; Ratio [13]: 100 - 1000; Ratio [14]: 100 - 1000; Ratio [16]: 100 - 1000
3 | Cc1c(C)c2c(c(C)c1OC(=O)CCC(=O)O)CCC(C)(C(=O)O)O2 (centres undefined) |  | 242 | 27 | > 300 |  | 120 | > 300 | 35 | 216 | 191 | 7 | 34 | 35 | 15 | 35 | 285 |  | > 300 | 1.1 | 63 | 
4 | CC(C)(C)OO [TERT-BUTYL HYDROPEROXIDE] |  |  |  |  |  |  |  |  |  |  |  |  |  |  |  |  |  |  |  |  | Activity [27]: 482; fold induction at 2 h, 1000 µM [28]: 11.6
5 | Cc1c(C)c2c(c(C)c1O)CC[C@@](C)(CCC[C@H](C)CCC[C@H](C)CCCC(C)C)O2 [ALPHA-TOCOPHEROL] | 0 | > 300 | 12 | > 300 |  | 100 | > 300 | 13 | 217 | > 300 | 28 |  | 6 | 37 | 15 | 165 | 0 | > 300 |  | > 300 | fold induction at 2 h, 3000 µM [29]: 1.28; inhibition at 300 µM [26]: 35%

From ChEMBL document CHEMBL3865792, “Antioxidant and antitumor activity of trolox, trolox succinate, and α-tocopheryl succinate conjugates with nitroxides” (Eur J Med Chem, 2016)
